Measured values published in patent US20150086719A1, “USE OF […] MARINE WOODBORERS” (Janssen Pharmaceutica, NV, priority 2012, published 2015).

Legend:
[1] = system: Limnoria lignorum; assay: Marine field test according to EN 275: rating of attack on tralopyril impregnated Scots pine sapwood by Limnoria l.; assay type: in vivo; set-up: key to Rating of attack by Limnoria l. 1st year / Rating of attack by Limnoria l. 2nd year: 0: No destruction No visible tunnel or destruction by marine organisms; Little destruction Tunnels are one or a few number and up to cover 15% of total sample area; Moderate destruction Tunnels cover between 15-25% of total sample area; 3: Violent destruction Tunnels cover between 25-50% of total sample area; 4: Fully destruction Tunnels covered more than 50% of total sample area; —: some samples were destroyed the second year (indicated by ‘-’ in Table 1); settings: for Rating of attack by Limnoria l. 1st year, average / Rating of attack by Limnoria l. 2nd year, average: average of samples, scale 0-4; for Rating of attack by Limnoria l. 1st year, average / Rating of attack by Limnoria l. 1st year: 1 year in seawater; for Rating of attack by Limnoria l. 2nd year, average / Rating of attack by Limnoria l. 2nd year: 2 years in seawater; for Rating of attack by Limnoria l. 1st year / Rating of attack by Limnoria l. 2nd year: single wood samples
Experimental: (§1) The effectiveness to reduce the presence of marine woodborers in wood situated in a marine environment was determined using the guidelines and recommendations in EN 275: 1992—wood preservatives—determination of the protective effectiveness against marine woodborers.
(§2) Wood Material The wood material used for both control groups (untreated) and test groups was Scots pine sapwood (Pinus sylvestris L.). The size of the wood samples was 25×70×200 mm and all pine specimens were pure sapwood and free from defects.
Full cell Impregnation Procedure: • place specimens into a treatments vessel (e.g. an exsiccator) • pull vacuum until 7 hPa is reached and hold said vacuum for 15 minutes • flood specimens under vacuum with treatment solution until the specimens are completely immersed • release vacuum and make sure that samples stay completely immersed while ambient pressure presses treatment solution into the specimens • leave specimens for further 2 hours immersed in the treatment solution • subsequently remove the specimens from the treatment solution, drain drip off solution for some minutes and place the specimens container on inert supports. • keep specimens in the closed container for 3 days (over weekend) for fixation, subsequently open the lid every day a bit more and remove it completely after 4 days • dry specimens in the open container at room temperature further 3 days
1a) Water Dilutable Formulation (Emulsifiable Concentrate)
Tralopyril dissolved in methanol (1600 ppm and 400 ppm).
1a) water dilutable formulation : 228 g and 846 g a.i./ m^3
1b) solvent based formulation : 1087 g a.i./ m^3
Bay (Gullmar fjord) outside the Kristineberg Marine Research Station, 100 km north of Gothenburg, Sweden.
Temperature and salinity of water: Temperature varies between (18-22)° C. in the summer and −1.5° C. in mid-winter. Salinity varies between 26 g/kg and 34 g/kg. Good oxygen level due to a strong water flow.
Borer activity: there is borer activity all around the year. […] The criterion for failure due to Teredo attack (tunnels covering more than 50% of the specimen area as it appears on the X-ray film) is often fulfilled already within 6 months for untreated control specimens. Maximum “service” life of untreated controls is approximately 1.5 years, after which the samples are often broken to pieces by the autumn storms.
Specimens were hung on nylon-bars (diameter =24 mm) of two ladder-like rigs placed on the sea bottom at 6±0.4 m depth at low tide. The test rigs have heavy concrete foundations and each rig was kept upright by a 50 cm diameter buoy. As a result of the arrangement, the specimens are located at depths varying from 4 m to 6.5 m below water surface during the exposure period.
Gribbles: Limnoria lignorum (present but not very active)

[2] = system: Teredo navalis; assay: Marine field test according to EN 275: rating of attack on tralopyril impregnated Scots pine sapwood by T. navalis; assay type: in vivo; set-up: key: 0: No destruction No visible tunnel or destruction by marine organisms; Little destruction Tunnels are one or a few number and up to cover 15% of total sample area; Moderate destruction Tunnels cover between 15-25% of total sample area; 3: Violent destruction Tunnels cover between 25-50% of total sample area; 4: Fully destruction Tunnels covered more than 50% of total sample area; —: some samples were destroyed the second year (indicated by ‘-’ in Table 1); settings: single wood samples; tralopyril retention 1087 g/m^3 (solvent based formulation, methanol); 1 year in seawater
Experimental: as §1, §2
Full cell Impregnation Procedure: • place specimens into a treatments vessel (e.g. an exsiccator) • pull vacuum until 7 hPa is reached and hold said vacuum for 15 minutes • flood specimens under vacuum with treatment solution until the specimens are completely immersed • release vacuum and make sure that samples stay completely immersed while ambient pressure presses treatment solution into the specimens • leave specimens for further 2 hours immersed in the treatment solution • subsequently remove the specimens from the treatment solution, drain drip off solution for some minutes and place the specimens container on inert supports. • keep specimens in the closed container for 3 days (over weekend) for fixation, subsequently open the lid every day a bit more and remove it completely after 4 days • dry specimens in the open container at room temperature further 3 days […]

[3] = tralopyril retention 1087 g/m^3
[4] = tralopyril retention 228 g/m^3 (water dilutable formulation)
[5] = tralopyril retention 846 g/m^3 (water dilutable formulation)
[6] = tralopyril retention 1087 g/m^3 (solvent based formulation, methanol)

N#Cc1c(-c2ccc(Cl)cc2)[nH]c(C(F)(F)F)c1Br [tralopyril, 4-bromo-2-(4-chlorophenyl)-5-(trifluoromethyl)-1H-pyrrole-3-carbonitrile]
0: Rating of attack by Limnoria l. 1st year [1, 4] | Rating of attack by Limnoria l. 2nd year [1, 4] | Rating of attack by Limnoria l. 1st year [1, 5] | Rating of attack by Limnoria l. 2nd year [1, 5] | Rating of attack by Limnoria l. 1st year [1, 6] | Rating of attack by Limnoria l. 2nd year [1, 6] | Rating of attack by T. navalis 1st year [2]
0.0: Rating of attack by Limnoria l. 1st year, average ([1]; tralopyril retention 228 g/m^3) | Rating of attack by Limnoria l. 2nd year, average ([1]; tralopyril retention 228 g/m^3) | Rating of attack by Limnoria l. 1st year, average ([1]; tralopyril retention 846 g/m^3) | Rating of attack by Limnoria l. 2nd year, average ([1]; tralopyril retention 846 g/m^3) | Rating of attack by Limnoria l. 1st year, average [1, 3] | Rating of attack by Limnoria l. 2nd year, average [1, 3]
